Data taken from patent US20040097566A1, “2-Substituted thiazolidinone and oxazolidinone derivatives for the inhibition of phosphatases and the treatment of cancer” (priority 2001, published 2004).
Entries after “also recorded” stand apart in the source; their conditions may differ.

How the values were obtained:
[1] = test system: breast cancer cell line MDA-MB468; test: MTT assay, human breast cancer cells; type: cell-based; settings: concentrations in the range of 10^−7-10^−5 M or higher, FIGS. 2, 17
Excerpt: (§1) The anti-cancer activity of some of the compounds described herein have been tested in one type of such in vitro assay, as described in the examples herein, using a microculture assay with 3-(4,5-dimethylthiazol-2-yl)-2,5-diphenyltetrazolium bromide (“MTT”). This assay has an advantage over in vivo assay in that results are obtained within a week as opposed to several months. The assay can be carried out in 96-well microtiter plates. The MTT assay is based on the production of a dark blue formazan product by dehydrogenase in the mitochondria of live tumor cells after exposure to drug for 6 days [M. C. Alley, D. A. Scudiero, A. Monks, M. L. Hursey, M. J. Czerwinski, D. L. Fine, B. J. Abbout, J. G. Mayo, R. H. Shoemaker and M. R. Boyd, Cancer Res., 48, 589, 1988]. Thus, only live cells are stained and can be measured at 595 nm. Anti-cancer activity can be reported as percent of the tumor cell growth in the presence of compound at a defined dose compared to control/vehicle treated tumor cells. The results of some such screening assays are given in Examples 162a and 162b, and in FIGS. 2, 3, and 15-18.
(§2) The following human cancer cell lines were used to detect anti-cancer activity in the compounds of the invention.
The breast cancer cell line MDA-MB468 served to detect anti-breast cancer activity.
(§3) Cell lines were purchased from American Type Culture Collection (ATCC).
(§4) The cancer cell cultures were grown as recommended by the ATTC manuals. A549 cells and BX-PC-3 were grown in DME Dulbecco's modified Eagle's medium containing 4500 mg/L glucose; 4 mM L-glutamine; 10 U/ml Pen-G; 10 mcg/ml […] and 10% fetal calf serum (FCS). PC-3 and MDA-MB468 cells were grown in RPMI medium 1640 containing 2 mM L-glutamine; 10 U/ml Pen-G; 10 mcg/ml Streptomycin and 10% FCS. Cells were kept at 6% CO2 and 37° C. Cells were seeded on day zero in 96-well format tissue culture plates at suitable densities the day before starting treatment, in the media indicated above.
(§5) On day one, the compounds of the invention were added to the culture media of growing cells, containing 10% FCS. The cell media contained the compounds of the invention at one of six concentrations: […], 5×10^−8, 1×10^−7, 5×10^−7, 1×10^−6, and 1×10^−5M. 0.1% DMSO was used as vehicle control, and never exceeded 0.1% final concentration. On day four the media was removed and replaced with fresh media containing the compounds of the invention and FCS.
(§6) The assay is based on the cleavage of the yellow tetrazolium salt MTT to purple formazan crystals by dehydrogenase activity in active mitochondria. This conversion only occurs in living cells with intact/functional mitochondria.
(§7) On day five 10 μl of 5 mg/ml MTT dye are added to each well containing a cell culture. Cells are incubated for additional 4 hours at 6% CO2 and 37° C. Reaction is then stopped by adding 100 μl/well of a solubilization solution consisting of 10% Sodium Dodecyl Sulfate (SDS) and 10 mM HCl On day 6 the formazan crystals formed are solubilized and the resulting colored solution is quantified using a scanning multiwell spectrophotometer at a wavelength of 595 nm.

[2] = test system: prostate cancer cell line PC-3; test: MTT assay, human prostate cancer cells; type: cell-based; settings: concentrations in the range of 10^−7-10^−5 M or higher, FIGS. 2, 16
Excerpt: as §1, §2
The prostate cancer cell line PC-3 was used to detect […]
as §3, §4, §5, §6, §7

[3] = test system: non-small-cell lung cancer cell line A549; test: MTT assay, human non-small-cell lung cancer cells; type: cell-based; settings: concentrations in the range of 10^−7-10^−5 M or higher, FIGS. 3, 15
Excerpt: as §1, §2
The non-small-cell lung cancer cell line A549 was used to detect anti-lung cancer activity
as §3, §4, §5, §6, §7

[4] = test system: pancreatic cancer cell line BX-PC-3; test: MTT assay, human pancreatic cancer cells; type: cell-based; settings: concentrations in the range of 10^−7-10^−5 M or higher, FIGS. 3, 18
Excerpt: as §1, §2
The pancreatic cancer cell line BX-PC-3 was used to detect anti-pancreatic cancer activity.
as §3, §4, §5, §6, §7

tumor cells (PC3) = test: Solid prostate cancer tumors in athymic nude mice, intraperitoneal treatment; type: in vivo; settings: PC3 s.c. in athymic nude mice; i.p. every other day; compound 43 20mg/kg, compound 81 20mg/kg and 60mg/kg; FIGS. 20, 21
Description: (§8) Four to six week-old male athymic nude mice (Harlan) were housed under sterile conditions in a fixed 12-12-hr artificial light-dark cycle, and maintained on a standard rodent diet provided ad libitum. Animals were allowed two days to acclimate in this experimental environment prior to the initiation of the study.
(§9) Groups of animals were injected subcutaneously with tumor cells (H460 or PC3). Prior to the injection, the sterile tumor cells were at a logarithmic growth phase and were washed twice with PBS, counted and resuspended in sterile saline at 5-50 million cells per ml. As soon as solid tumors were discernible, the animals were sorted into treatment groups with equal average tumor volume. Animals were treated every other day intraperitoneally with a final volume of 5 ml/kg. Tumor volume was measured once a week for the duration of the study.
Experiment I: Treatment of solid prostate cancer tumors
Study 1—Treatment groups(n=6/group):

tumor cells (H460) = test: Solid non-small-cell lung cancer tumors in athymic nude mice, intraperitoneal treatment; type: in vivo; settings: H460 s.c. in athymic nude mice, i.p. every other day, compound 81 20mg/kg, FIG. 22
Description: as §8, §9
Experiment II: Treatment of solid non-small-cell lung cancer tumors

melting point [°C]	Structure (SMILES)	anticancer cell activity / killing of breast cancer cells [1]	anticancer cell activity / killing of prostate cancer cells [2]	anticancer cell activity / killing of non-small-cell lung cancer cells [3]	anticancer cell activity / killing of pancreatic cancer cells [4]	growth of solid human prostate cancer tumors (tumor cells (PC3))	growth of non-small cell lung cancer tumors (tumor cells (H460))
	CCC(C)(C)c1cc(-c2cccc(CC3SC(N4CCOCC4)=NC3=O)n2)ccc1O (stereo not shown) [Compound 155, 5-{6-[3-(1,1-Dimethyl-propyl)-4-hydroxy-phenyl]-pyridin-2ylmethyl}--2-morpholin-4-yl-thiazol-4-one]	kill significant percentages of the cells	kill significant percentages of the cells	kill significant percentages of the cells	kill significant percentages of the cells		
227 to 229	O=C1N=C(N2CCOCC2)SC1Cc1cccc(-c2cc(F)c(O)c(C34CC5CC(CC(C5)C3)C4)c2)c1 (stereo not shown) [Compound 43, 5-[3-(3-Adamantan-1-yl-4-hydroxy-5-fluoro-phenyl)benzyl]-2-morpholin-4-yl-thiazol-4-one]	kill significant percentages of the cells; also recorded: strong anticancer cell activity	kill significant percentages of the cells; also recorded: strong anticancer cell activity	kill significant percentages of the cells; also recorded: strong anticancer all activity	kill significant percentages of the cells; also recorded: strong anticancer all activity	significantly retarded the growth; also recorded: significantly slowed the growth	
310 to 312	COc1cc(-c2ccc(O)c(C34CC5CC(CC(C5)C3)C4)c2)cc(/C=C2\SC(N3CCOCC3)=NC2=O)c1O [Compound 84, 5-[3-(3-Adamantan-1-yl-4-hydroxy-phenyl)-5-methoxy-6-hydroxy-benzylidene]-2-morpholin-4-yl-thiazol-4-one]	kill significant percentages of the cells	kill significant percentages of the cells	kill significant percentages of the cells	kill significant percentages of the cells		
	CCC(C)(C)c1cc(-c2ccc(F)c(/C=C3\SC(N4CCOCC4)=NC3=O)c2)ccc1O [Compound 152, 5-[3′-(1,1-Dimethyl-propyl)-4-fluoro-4′-hydroxy-biphenyl-3-ylmethylene]-2-morpholin-4-yl-thiazol-4one]	kill significant percentages of the cells	kill significant percentages of the cells	kill significant percentages of the cells	kill significant percentages of the cells		
	O=C1N=C(N2CCOCC2)SC1Cc1cccc(-c2ccc(O)c(C34CC5CC(CC(C5)C3)C4)c2)c1 (stereo not shown) [Compound 135, 5-(3′-Adamantan-1-yl-4′-hydroxy-biphenyl-3-ylmethyl)-2-morpholin-4-yl-thiazol-4-one]	kill significant percentages of the cells	kill significant percentages of the cells	kill significant percentages of the cells	kill significant percentages of the cells		
152 to 154	O=C1N=C(N2CCCC2)SC1Cc1cccc(-c2cc(F)c(O)c(C34CC5CC(CC(C5)C3)C4)c2)c1 (stereo not shown) [Compound 81]	kill significant percentages of the cells	kill significant percentages of the cells	kill significant percentages of the cells	kill significant percentages of the cells	significantly retarded the growth; also recorded: significantly slowed the growth	significantly retarded the growth; also recorded: significantly slowed the growth
293 to 295	O=C1N=C(N2CCOCC2)S/C1=C\c1cccc(-c2cc(F)c(O)c(C34CC5CC(CC(C5)C3)C4)c2)c1 [Compound 1, 5-[3-(3-Adamantan-1-yl-4-hydroxy-5-fluoro-phenyl)benzylidene]-2-morpholin-4-yl-thiazol-4-one]	kill significant percentages of the cells; also recorded: strong anticancer cell activity	kill significant percentages of the cells; also recorded: strong anticancer cell activity	kill significant percentages of the cells; also recorded: strong anticancer all activity	kill significant percentages of the cells; also recorded: strong anticancer all activity		
74 to 77	CCC(C)(C)c1cc(-c2cccc(CC3SC(N4CCOCC4)=NC3=O)c2)ccc1O (stereo not shown) [Compound 151, 5-[3′-(1,1-Dimethyl-propyl)-4′-hydroxy-biphenyl-3-ylmethyl]-2-morpholin-4-yl-thiazol-4-one]	kill significant percentages of the cells	kill significant percentages of the cells	kill significant percentages of the cells	kill significant percentages of the cells		
